Laboratory results from US20230089073A1 (Carmot Therapeutics, Inc., priority 2021, published 2023).

The compounds below were run against T1, human GLP-1 receptor (Homo sapiens, UniProt P43220) (assay: GLP-1R cAMP Assay). Conditions: cAMP accumulation in CHO cells stably overexpressing the human GLP-1 receptor; 30 min treatment; HitHunter cAMP kit; read-out: EC50.
T1 construct: expressed in transfected cells
Assay type: cell-based
In short: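 CHO cells stably overexpressing human GLP-1R, 10,000 cells/well, treated with compound in 20-point dose response in triplicate for 30 min. cAMP accumulation read by enzyme-complementation luminescence after lysis and overnight incubation; dose-response curves fitted.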

T1 sequence (P43220 24-463): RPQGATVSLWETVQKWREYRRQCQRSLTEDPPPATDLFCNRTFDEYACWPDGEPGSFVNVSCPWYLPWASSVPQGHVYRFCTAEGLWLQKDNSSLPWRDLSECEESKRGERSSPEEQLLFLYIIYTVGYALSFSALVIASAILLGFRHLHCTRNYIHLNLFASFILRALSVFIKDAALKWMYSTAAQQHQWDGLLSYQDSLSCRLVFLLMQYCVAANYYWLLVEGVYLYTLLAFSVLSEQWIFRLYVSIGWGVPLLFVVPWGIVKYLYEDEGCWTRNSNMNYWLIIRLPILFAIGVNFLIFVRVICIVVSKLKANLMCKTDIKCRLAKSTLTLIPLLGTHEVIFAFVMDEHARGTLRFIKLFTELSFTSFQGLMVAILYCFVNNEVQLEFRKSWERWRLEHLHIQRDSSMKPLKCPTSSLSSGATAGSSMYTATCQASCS

Compound	EC50 [µM]
O=C(O)c1ccc2nc(CN3CCN(C(=O)c4cccc(Oc5ccc(F)cc5)c4)CC3)n(C[C@@H]3CCO3)c2c1 [Compound 13, 2-({4-[3-(4-fluorophenoxy)benzoyl]piperazin-1-yl}methyl)-1-{[(2S)-oxetan-2-yl]methyl}-1H-1,3-benzodiazole-6-carboxylic acid]	> 0.5
O=C(O)c1ccc2nc(CN3CCC(Oc4cccc(COc5ncc(Cl)cc5F)c4)CC3)n(C[C@@H]3CCO3)c2c1 [Compound 288, 2-{[4-(3-{[(5-chloro-3-fluoropyridin-2-yl)oxy]methyl}phenoxy)piperidin-1-yl]methyl}-1-{[(2S)-oxetan-2-yl]methyl}-1H-1,3-benzodiazole-6-carboxylic acid]	> 0.5
C[C@H]1C[C@@H](Oc2ccnc(COc3ccc(F)cc3F)n2)CCN1Cc1nc2ncc(C(=O)O)cc2n1C[C@@H]1CCO1 [Compound 512, 2-{[(2S,4S)-4-({2-[(2,4-difluorophenoxy)methyl]pyrimidin-4-yl}oxy)-2-methylpiperidin-1-yl]methyl}-1-{[(2S)-oxetan-2-yl]methyl}-1H-imidazo[4,5-b]pyridine-6-carboxylic acid]	> 0.5
Cc1ccc(N(C)c2cc(C(=O)N3CCN(Cc4nc5ccc(C(=O)O)cc5n4C[C@@H]4CCO4)CC3)ccn2)c(Cl)c1 [Example 99, (S)-2-((4-(2-((2-Chloro-4-methylphenyl)(methyl)amino)isonicotinoyl)piperazin-1-yl)methyl)-1-(oxetan-2-ylmethyl)-1H-benzo[d]imidazole-6-carboxylic acid]	0.05 to 0.5
Cc1ccc(N(C)c2cccc(C(=O)N3CC4CCC(C3)N4Cc3nc4ccc(C(=O)O)cc4n3C[C@@H]3CCO3)c2)c(Cl)c1 [Compound 87, 2-[(3-{3-[(2-chloro-4-methylphenyl)(methyl)amino]benzoyl}-3,8-diazabicyclo[3,2.1]octan-8-yl)methyl]-1-{[(2S)-oxetan-2-yl]methyl}-1H-1,3-benzodiazole-6-carboxylic acid]	0.05 to 0.5
O=C(O)c1ccc2nc(CN3CCN(Cc4cc5ccc(-c6ccc(Cl)cc6Cl)cc5o4)CC3)n(C[C@@H]3CCO3)c2c1 [Example 27, (S)-2-((4-((6-(2,4-Dichlorophenyl)benzofuran-2-yl)methyl)piperazin-1-yl)methyl)-1-(oxetan-2-ylmethyl)-1H-benzo[d]imidazole-6-carboxylic acid]	> 0.5
Cc1cc(C(C)C)ccc1Oc1cccc(C(=O)N2CCN(Cc3nc4ccc(C(=O)O)cc4n3C[C@@H]3CCO3)CC2)c1 [Example 89, (S)-2-((4-(3-(4-Isopropyl-2-methylphenoxy)benzoyl)piperazin-1-yl)methyl)-1-(oxetan-2-ylmethyl)-1H-benzo[d]imidazole-6-carboxylic acid]	0.05 to 0.5
CCn1cncc1Cn1c(CN2CCC([C@H](F)c3cccc(COc4ccc(Cl)cc4Cl)c3)CC2)nc2ccc(C(=O)O)cc21 (single isomer, unassigned) [Compound 202]	< 0.05
O=C(O)c1ccc2nc(CN3CCC(Oc4ccnc(COc5ccc(Cl)cc5Cl)c4)CC3)n(C[C@H]3CCOC3)c2c1 [Compound 169, 2-{[4-({2-[(2,4-dichlorophenoxy)methyl]pyridin-4-yl}oxy)piperidin-1-yl]methyl}-1-{[(3R)-oxolan-3-yl]methyl}-1H-1,3-benzodiazole-6-carboxylic acid]	< 0.05
N#Cc1cc(F)ccc1OCc1nccc(OC2CCN(Cc3nc4ccc(C(=O)O)cc4n3C[C@@H]3CCO3)CC2)n1 [Compound 306]	< 0.05
O=C(O)c1ccc2nc(CN3CCC(Oc4ccnc(COc5ccc(Cl)cc5F)c4)CC3)n(Cc3ncco3)c2c1 [Compound 258, 2-{[4-({2-[(4-chloro-2-fluorophenoxy)methyl]pyridin-4-yl}oxy)piperidin-1-yl]methyl}-1-[(1,3-oxazol-2-yl)methyl]-1H-1,3-benzodiazole-6-carboxylic acid]	< 0.05
O=C(O)c1ccc2nc(CN3CCC(Oc4ccnc(COc5ccc(Cl)cc5F)c4)CC3)n(CC34CC(CO3)C4)c2c1 [Compound 333]	< 0.05
Cc1cccc(Oc2cccc(C(=O)N3CCN(Cc4nc5ccc(C(=O)O)cc5n4C[C@@H]4CCO4)CC3)c2)c1 [Compound 17, 2-({4-[3-(3-methylphenoxy)benzoyl]piperazin-1-yl}methyl)-1-{[(2S)-oxetan-2-yl]methyl}-1H-1,3-benzodiazole-6-carboxylic acid]	> 0.5

Results, then the compound that gave them:

EC50 [µM]	Compound
< 0.05	O=C(O)c1ccc2nc(CN3CCC(Oc4ccnc(COc5cc(F)c(F)cc5F)n4)CC3)n(C[C@@H]3CCO3)c2c1 [Compound 495, 1-{[(2S)-oxetan-2-yl]methyl}-2-{[4-({2-[(2,4,5-trifluorophenoxy)methyl]pyrimidin-4-yl}oxy)piperidin-1-yl]methyl}-1H-1,3-benzodiazole-6-carboxylic acid]
< 0.05	C[C@H]1C[C@@H](Oc2nc(COc3ccc(C#N)cc3F)ncc2F)CCN1Cc1nc2ccc(C(=O)O)cc2n1C[C@@H]1CCO1 [Compound 493, 2-{[(2S,4S)-4-({2-[(4-cyano-2-fluorophenoxy)methyl]-5-fluoropyrimidin-4-yl}oxy)-2-methylpiperidin-1-yl]methyl}-1-{[(2S)-oxetan-2-yl]methyl}-1H-1,3-benzodiazole-6-carboxylic acid]
< 0.05	O=C(O)c1cc(F)c2nc(CN3CCC(N(CC4CC4)c4ccnc(COc5ccc(Cl)cc5F)n4)CC3)n(C[C@@H]3CCO3)c2c1 [Compound 511, 2-{[4-({2-[(4-chloro-2-fluorophenoxy)methyl]pyrimidin-4-yl}(cyclopropylmethyl)amino)piperidin-1-yl]methyl}-4-fluoro-1-{[(2S)-oxetan-2-yl]methyl}-1H-1,3-benzodiazole-6-carboxylic acid]
< 0.05	O=C(O)c1ccc2nc(CN3CCC(Oc4ccnc(COc5ccc(C(F)F)cc5F)n4)CC3)n(C[C@@H]3CCO3)c2c1 [Compound 311]
< 0.05	CCn1cncc1Cn1c(CN2CCC(Cc3cc(F)cc(COc4ccc(Cl)cc4Cl)c3)CC2)nc2ccc(C(=O)O)cc21 [Compound 133, 2-{[4-({3-[(2,4-dichlorophenoxy)methyl]-5-fluorophenyl}methyl)piperidin-1-yl]methyl}-1-[(1-ethyl-1H-imidazol-5-yl)methyl]-1H-1,3-benzodiazole-6-carboxylic acid]
< 0.05	C[C@H]1C[C@@H](Oc2nc(COc3ccc(F)cc3C#N)ncc2F)CCN1Cc1nc2ccc(C(=O)O)cc2n1C[C@@H]1CCO1 [Compound 492, 2-{[(2S,4S)-4-({2-[(2-cyano-4-fluorophenoxy)methyl]-5-fluoropyrimidin-4-yl}oxy)-2-methylpiperidin-1-yl]methyl}-1-{[(2S)-oxetan-2-yl]methyl}-1H-1,3-benzodiazole-6-carboxylic acid]
< 0.05	C[C@H]1C[C@H](Oc2cccc(COc3ccc(Cl)cc3Cl)c2)CCN1Cc1nc2ccc(C(=O)O)cc2n1C[C@@H]1CCO1 [Compound 254, 2-{[(2S,4R)-4-{3-[(2,4-dichlorophenoxy)methyl]phenoxy}-2-methylpiperidin-1-yl]methyl}-1-{[(2S)-oxetan-2-yl]methyl}-1H-1,3-benzodiazole-6-carboxylic acid]
< 0.05	N#Cc1ccc(OCc2cc(OC3CCN(Cc4nc5c(F)cc(C(=O)O)cc5n4C[C@@H]4CCO4)CC3)ccn2)c(F)c1 [Compound 365]
< 0.05	O=C(O)c1ccc2nc(CN3CCC(Oc4ccnc(COc5ccc(C(F)(F)F)cc5F)n4)CC3)n(C[C@@H]3CCO3)c2n1 [Compound 371]
< 0.05	N#Cc1cc(F)ccc1OCc1nccc(OC2CCN(Cc3nc4c(F)cc(C(=O)O)cc4n3C[C@@H]3CCO3)CC2)n1 [Compound 307]
< 0.05	O=C(O)c1ccc2nc(CN3CCC(Oc4ccnc(COc5ccc(C(F)(F)F)cc5F)c4)CC3)n(C[C@@H]3CCO3)c2c1 [Compound 356]
< 0.05	CCn1cncc1Cn1c(CN2CCC(Cc3cnc(COc4ncc(C5CC5)cc4Cl)o3)CC2)nc2ccc(C(=O)O)cc21 [Compound 144, 2-({4-[(2-{[(3-chloro-5-cyclopropylpyridin-2-yl)oxy]methyl}-1,3-oxazol-5-yl)methyl]piperidin-1-yl}methyl)-1-[(1-ethyl-1H-imidazol-5-yl)methyl]-1H-1,3-benzodiazole-6-carboxylic acid]
< 0.05	O=C(O)c1ccc2nc(CN3CCC(Cc4cccc(COc5ccc(Cl)cc5Cl)c4)CC3)n(C[C@H]3CCOC3)c2c1 [Compound 148, 2-{[4-({3-[(2,4-dichlorophenoxy)methyl]phenyl}methyl)piperidin-1-yl]methyl}-1-{[(3R)-oxolan-3-yl]methyl}-1H-1,3-benzodiazole-6-carboxylic acid]
< 0.05	O=C(O)c1ccc2nc(CN3CCC(Cc4cccc(COc5ccc(Cl)cc5Cl)c4)CC3)n(Cc3ncco3)c2c1 [Compound 149, 2-{[4-({3-[(2,4-dichlorophenoxy)methyl]phenyl}methyl)piperidin-1-yl]methyl}-1-[(1,3-oxazol-2-yl)methyl]-1H-1,3-benzodiazole-6-carboxylic acid]
< 0.05	N#Cc1cc(F)ccc1OCc1cccc(CC2CCN(Cc3nc4ccc(C(=O)O)cc4n3C[C@@H]3CCO3)CC2)c1 [Compound 187, 2-{[4-({3-[(2-cyano-4-fluorophenoxy)methyl]phenyl}methyl)piperidin-1-yl]methyl}-1-{[(2S)-oxetan-2-yl]methyl}-1H-1,3-benzodiazole-6-carboxylic acid]
< 0.05	O=C(O)c1ccc2nc(CN3CCC(Oc4cccc(COc5ccc(Cl)cc5Cl)c4)CC3)n(Cc3ncco3)c2c1 [Compound 217, 2-[(4-{3-[(2,4-dichlorophenoxy)methyl]phenoxy}piperidin-1-yl)methyl]-1-[(1,3-oxazol-2-yl)methyl]-1H-1,3-benzodiazole-6-carboxylic acid]
< 0.05	CCn1cncc1Cn1c(CN2CCC(C#N)(Cc3ccnc(COc4ccc(Cl)cc4Cl)c3)CC2)nc2ccc(C(=O)O)cc21 [Example 189, 2-((4-Cyano-4-((2-((2,4-dichlorophenoxy)methyl)pyridin-4-yl)methyl)piperidin-1-yl)methyl)-1-((1-ethyl-1H-imidazol-5-yl)methyl)-1H-benzo[d]imidazole-6-carboxylic acid]
